Laboratory results as given in patent US20240254174A1 (priority 2023, published 2024).
Several values for one entry are separate records, joined by “and”; a condition that tells them apart may be missing. Identical values can stand only once. Entries after “also recorded” stand apart in the source; their conditions may differ.

What was measured:
BDNF [1] = settings: mouse, in vivo
Target sequence in this assay (P21237 131-249): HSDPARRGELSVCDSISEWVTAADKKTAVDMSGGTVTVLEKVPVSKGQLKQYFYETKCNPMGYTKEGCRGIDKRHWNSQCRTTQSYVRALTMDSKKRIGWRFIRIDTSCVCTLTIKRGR

Pdcd4 = settings: mouse, in vivo
BDNF [2] = format: cell-based
Pdcd4 protein = format: cell-based
α7 nAChR [3] = target: T1, α7 nAChR (Homo sapiens, UniProt P36544); assay: cell-based; settings: read-out: inhibition of ACh-mediated currents on α7 nAChR
T1 sequence (P36544 23-502 limits assumed): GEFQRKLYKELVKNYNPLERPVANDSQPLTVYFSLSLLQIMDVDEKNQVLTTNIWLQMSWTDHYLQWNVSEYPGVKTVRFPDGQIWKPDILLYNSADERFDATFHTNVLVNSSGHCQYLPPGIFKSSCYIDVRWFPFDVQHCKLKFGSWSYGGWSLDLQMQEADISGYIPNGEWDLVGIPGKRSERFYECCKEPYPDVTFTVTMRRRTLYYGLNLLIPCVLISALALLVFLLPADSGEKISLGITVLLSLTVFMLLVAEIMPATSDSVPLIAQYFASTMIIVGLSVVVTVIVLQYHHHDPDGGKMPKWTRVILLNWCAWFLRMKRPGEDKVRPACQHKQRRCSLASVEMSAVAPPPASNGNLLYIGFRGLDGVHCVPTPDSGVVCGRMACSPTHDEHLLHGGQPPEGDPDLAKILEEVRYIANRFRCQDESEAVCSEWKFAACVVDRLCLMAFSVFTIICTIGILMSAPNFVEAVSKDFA

α9α10 nAChR = α9α10 nAChR (Homo sapiens, UniProt Q9GZZ6+Q9UGM1); assay: cell-based
α9α10 nAChR, sequence (Q9UGM1 26-479 limits assumed): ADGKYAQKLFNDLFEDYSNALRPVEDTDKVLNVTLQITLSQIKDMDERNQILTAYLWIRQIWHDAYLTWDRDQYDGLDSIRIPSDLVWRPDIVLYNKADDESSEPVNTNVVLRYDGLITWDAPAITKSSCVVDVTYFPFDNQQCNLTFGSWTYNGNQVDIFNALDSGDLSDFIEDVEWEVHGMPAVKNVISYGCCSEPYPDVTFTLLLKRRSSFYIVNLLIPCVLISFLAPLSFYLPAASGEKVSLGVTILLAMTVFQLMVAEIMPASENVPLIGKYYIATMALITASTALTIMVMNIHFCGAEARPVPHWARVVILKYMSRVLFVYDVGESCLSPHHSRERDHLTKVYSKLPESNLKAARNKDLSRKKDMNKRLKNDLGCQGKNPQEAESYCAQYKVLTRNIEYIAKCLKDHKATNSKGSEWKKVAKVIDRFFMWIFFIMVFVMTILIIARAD
α9α10 nAChR, sequence (Q9GZZ6 25-450 limits assumed): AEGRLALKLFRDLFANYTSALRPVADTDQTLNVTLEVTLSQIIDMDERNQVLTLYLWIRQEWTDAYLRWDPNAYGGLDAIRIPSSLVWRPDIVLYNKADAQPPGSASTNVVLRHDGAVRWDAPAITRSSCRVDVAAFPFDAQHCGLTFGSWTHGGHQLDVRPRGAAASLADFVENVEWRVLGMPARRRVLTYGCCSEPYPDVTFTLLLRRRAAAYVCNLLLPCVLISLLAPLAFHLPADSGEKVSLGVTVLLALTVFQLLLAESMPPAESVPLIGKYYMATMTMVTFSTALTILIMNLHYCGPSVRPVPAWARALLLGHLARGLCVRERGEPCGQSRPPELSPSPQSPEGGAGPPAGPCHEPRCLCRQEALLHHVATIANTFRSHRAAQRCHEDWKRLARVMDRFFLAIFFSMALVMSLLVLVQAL

α7 nAChR [4] = target: T1, α7 nAChR; assay: cell-based; format: cell-based
nAChR subtypes = format: cell-based, Human
[5] = system: α7-nAChR transfected N2a cells; format: cell-based
[6] = system: non-transfected N2a cells
[7] = target: α7 nAChR (nicotinic acetylcholine receptor), expressed in Xenopus laevis oocytes (Human) (UniProt P36544); assay: cell-based or functional assay
α7 nAChR (nicotinic acetylcholine receptor), expressed in Xenopus laevis oocytes (Human), sequence (P36544 23-502): as the sequence (P36544 23-502 limits assumed) above

[8] = target: α9α10 nAChR, expressed in Xenopus laevis oocytes (Human) (UniProt Q9UGM1); assay: cell-based or functional assay
α9α10 nAChR, expressed in Xenopus laevis oocytes (Human), sequence (Q9UGM1 23-479, chain 1 of 2): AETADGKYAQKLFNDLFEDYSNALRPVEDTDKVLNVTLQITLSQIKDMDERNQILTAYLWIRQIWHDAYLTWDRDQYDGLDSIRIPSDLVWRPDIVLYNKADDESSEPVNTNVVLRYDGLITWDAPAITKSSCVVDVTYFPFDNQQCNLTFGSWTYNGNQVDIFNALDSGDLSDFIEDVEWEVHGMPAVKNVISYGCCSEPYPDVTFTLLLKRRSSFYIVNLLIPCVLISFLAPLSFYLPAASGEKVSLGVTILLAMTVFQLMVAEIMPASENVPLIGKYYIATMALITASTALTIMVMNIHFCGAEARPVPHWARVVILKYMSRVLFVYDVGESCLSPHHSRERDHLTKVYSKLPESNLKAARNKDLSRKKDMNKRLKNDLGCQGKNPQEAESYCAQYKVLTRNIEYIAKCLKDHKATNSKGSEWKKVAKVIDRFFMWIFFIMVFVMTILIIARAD
α9α10 nAChR, expressed in Xenopus laevis oocytes (Human), sequence (Q9GZZ6 25-450, chain 2 of 2, further chain): as the sequence (Q9GZZ6 25-450 limits assumed) above

[9] = system: non-transfected HEK cells; format: cell-based, human
[10] = in vivo
[11] = system: α7-nAChR transfected cells; format: cell-based

Pdcd4, sequence (Q61823 whole entry): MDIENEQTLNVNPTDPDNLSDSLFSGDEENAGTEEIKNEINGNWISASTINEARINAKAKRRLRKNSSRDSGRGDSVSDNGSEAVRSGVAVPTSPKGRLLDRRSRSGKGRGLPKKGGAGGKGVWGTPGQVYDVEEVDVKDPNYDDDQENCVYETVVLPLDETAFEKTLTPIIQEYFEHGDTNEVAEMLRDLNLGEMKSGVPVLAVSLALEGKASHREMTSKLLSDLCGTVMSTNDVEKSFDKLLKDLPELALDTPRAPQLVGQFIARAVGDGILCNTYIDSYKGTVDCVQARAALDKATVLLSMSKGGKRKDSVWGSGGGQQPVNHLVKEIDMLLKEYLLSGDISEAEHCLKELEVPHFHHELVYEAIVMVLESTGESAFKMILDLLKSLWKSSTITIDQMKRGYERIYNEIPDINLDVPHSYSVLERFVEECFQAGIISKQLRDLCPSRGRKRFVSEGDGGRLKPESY

Molecule: 5′-GAGGCUAUGAGAGAAUUUATT-FL-3′ [siPdcd4]
- BDNF production in tissue (BDNF [1]): enhance
- Pdcd4 expression in tissue (Pdcd4): decreases
- BDNF production (BDNF [2]): enhance
- expression of Pdcd4 protein (Pdcd4 protein): knock down

Molecule: CC[C@H](C)[C@H](NC(=O)[C@H](CC(=O)O)NC(=O)[C@H](CS)NC(=O)[C@H](CO)NC(=O)[C@@H](NC(=O)CNC(=O)[C@H](CC(C)C)NC(=O)[C@H](CCCNC(=N)N)NC(=O)[C@@H]1CCCN1C(=O)[C@H](CC(N)=O)NC(=O)[C@H](CCC(=O)O)NC(=O)[C@@H]1CCCN1C(=O)[C@H](CCSC)NC(=O)[C@H](Cc1c[nH]c2ccccc12)NC(=O)[C@@H](NC(=O)[C@@H](NC(=O)[C@@H](N)Cc1ccc(O)cc1)[C@@H](C)O)[C@@H](C)CC)[C@@H](C)O)C(=O)N[C@@H](Cc1ccccc1)C(=O)N[C@H](C(=O)N[C@@H](CC(N)=O)C(=O)N[C@@H](CO)C(=O)N[C@@H](CCCNC(=N)N)C(=O)NCC(=O)N[C@@H](CCCCN)C(=O)N[C@@H](CCCNC(=N)N)C(=O)N[C@@H](C)C(=O)N[C@@H](CO)C(=O)N[C@@H](CCCCN)C(=O)NCC(=O)O)[C@@H](C)O [RVG peptide, reference compound]
- inhibition at 100 µM (α7 nAChR [3]): > 80%
- neuro-/cytotoxicity (HEK cell lines): not neuro- or cyto-toxic
- IC50 (α9α10 nAChR): 153 ± 14 µM
- IC50 (α7 nAChR [4]; α7 nAChR potency (IC50, concentration response profile)): 32 µM and 31 µM
- inhibition of ACh-mediated currents on several other nAChR subtypes (nAChR subtypes): > 25%
- nAChR subtype selectivity (in words) (nAChR subtypes): not target specific; also recorded: slight preference for the α7-nAChR; also recorded: not very selective

Molecule: CSCC[C@H](NC(=O)[C@H](CCCCN)NC(=O)[C@H](CCCNC(=N)N)NC(=O)[C@@H](N)Cc1ccc(O)cc1)C(=O)N[C@@H](Cc1c[nH]c2ccccc12)C(=O)N[C@@H](CCSC)C(=O)N1CCC[C@H]1C(=O)N[C@@H](CCC(=O)O)C(=O)N[C@@H](CC(N)=O)C(=O)N1CCC[C@H]1C(=O)N[C@@H](CCCNC(=N)N)C(=O)N[C@@H](CC(C)C)C(=O)NCC(=O)N[C@H](C(=O)N[C@@H](CO)C(=O)N[C@@H](CS)C(=O)N[C@@H](CC(=O)O)C(=O)N[C@@H](C)C(=O)N[C@@H](Cc1ccccc1)C(=O)N[C@@H](CS)C(=O)N[C@@H](CO)C(=O)N[C@@H](CO)C(=O)N[C@@H](CCCNC(=N)N)C(=O)NCC(=O)N[C@@H](CCCCN)C(=O)N[C@H](C(=O)N[C@H](C(=O)N[C@@H](CCC(=O)O)C(=O)N[C@@H](CC(C)C)C(=O)NCC(=O)O)C(C)C)C(C)C)[C@@H](C)O [lead peptide]
- time to entry into neuronal-like cells post-exposure [5]: ≤ 3 h
- time visually present in neuronal-like cells [5]: up to 72 hrs
- neuro-/cytotoxicity (HEK cell lines): not neuro- or cyto-toxic
- α7 nAChR potency (IC50, concentration response profile) (α7 nAChR [4]): low μM
- inhibition of ACh-mediated currents on no more than two subtypes (positive hit criterion) (nAChR subtypes): > 80%
- inhibition of ACh-mediated currents on the other tested nAChR subtypes (nAChR subtypes): < 25%
- nAChR subtype selectivity (in words) (nAChR subtypes): minimally targeting nine other nAChR subtypes; also recorded: high selectivity

Molecule: CDAFCSSRGKVVELG [α-btx Region 3]
- effect of peptide regions on α7 nAChR mediated currents (in words) (α7 nAChR [4]): inhibit

Molecule: CDIFTNSRGKRASKG [RVG Region 3]
- effect of peptide regions on α7 nAChR mediated currents (in words) (α7 nAChR [4]): slightly antagonizes

Molecule: DMSO
- cell viability, positive control [6]: kills cells

Molecule: MPENPRLGTS [RVG Region 2]
- effect of peptide regions on α7 nAChR mediated currents (in words) (α7 nAChR [4]): minimal effects

Molecule: RVG peptide (rabies viral glycoprotein peptide)
- potency (concentration response profile, inhibition of ACh-mediated currents) [7]: 31 µM
- potency (concentration response, inhibition of ACh-mediated currents) [7]: 32 µM
- potency (concentration response profile, inhibition of ACh-mediated currents) [8]: 153 µM

Molecule: YRKMW [α-btx Region 1]
- effect of peptide regions on α7 nAChR mediated currents (in words) (α7 nAChR [4]): inhibit

Molecule: YRKMWMPENPRLGTSCDAFCSSRGKVVELGRRRRRRRRR [lead CPP-9dR]
- delivery of siPdcd4-FL into non-transfected HEK cells [9]: not into non-transfected HEK cells
- siPdcd4-FL delivery into mouse CNS [10]: can facilitate siPdcd4-FL delivery into mouse CNS
- brain regional distribution ([10]; mouse): accumulate in the hippocampus and prefrontal cortex
- delivery of siPdcd4-FL into α7-nAChR transfected cells [11]: can facilitate delivery

Molecule: YTIW [RVG Region 1]
- effect of peptide regions on α7 nAChR mediated currents (in words) (α7 nAChR [4]): minimal effects

Molecule: α-bungarotoxin [reference compound]
- cell entry / labeling (in words) [5]: unable to enter
